# Assays:
# Balb/c mice = assay: IgE-dependent passive cutaneous anaphylaxis (Evans blue dye extravasation); format: in vivo; settings: 25 mg/kg i.p. twice at 1 hour intervals prior to antigen challenge; 30 minutes after challenge; vehicle 0.64±0.08
# Procedure: The in vivo biologic activity of compound D-58 was examined in a well characterized murine model of passive cutaneous anaphylaxis. In order to induce passive cutaneous anaphylaxis, left ears of Balb/c mice were sensitized with 50 μg DNP-IgE intradermally. Right ears were injected with equal volumes of saline. Dorsal sides of the ears of Balb/c mice were injected intradermally with 50 μg of DNP-IgE (left ears) or PBS (right ears) using a 30-gauge needle (ref 28). Twenty hours later, mice were challenged with 100 μg antigen (DNP-BSA) in 200 μl 2% Evans blue dye intravenously. Control mice were given PBS (but not antigen) intravenously with 2% Evans blue. For quantitation of Evans blue dye extravasation as a measure of anaphylaxis-associated vascular hyperpermeability, 8 mm^2 skin specimens were removed from the ears of mice, minced in 2 ml formamide and incubated in a 80° C. water bath for 2 hours to extract the dye. The absorbance was read at 570 nm using a spectrophotometer.
# For assessment of the vascular leak, animals were sacrificed 30 minutes after the antigen challenge. The plasma exudation was assessed by quantitation of the amount of Evan's blue dye extravasated into the ear skin 30 minutes after the antigen challenge. […]
# HaCaT cells = assay: PGE2 release from UVB-irradiated HaCaT cells; format: cell-based, human; settings: 20 mJ/cm^2 UVB, 24 hours post irradiation; FIG. 5
# Text: A bank of 8-FSX24T12/HO/UVB lamps (National Biological Corporation, Twinsburg, Ohio) that emit light predominantly in the UVB range (280-320 nm) was used to irradiate the cell cultures. The performance of the UVB lamps was always confirmed before irradiation using a UVB meter (model-500C obtained from National Biological Corporation, Twinsburg, Ohio). The dose of UVB light used to irradiate cell cultures was 20 mJ/cm^2. Confluent HaCaT cells cultured in 24-well culture dishes were washed three times with serum-free DMEM containing 1% BSA and incubated with indicated concentrations of compound D-58 for 1 hour at 37° C. […] Compound D-58 was readministered after irradiation and the cells were incubated for another 24 hours at 37° C. The cell supernatants were collected and their PGE2 concentration was measured by ELISA. The protein contents of the cell pellets were determined using the Pierce BCA protein assay method.
# One of the major arachidonic acid metabolites in UVB-irradiated epidermal cells is prostaglandin E2 (PGE2), which induces edema and erythema in skin (refs 34 and 35). PGE2 release can be detected as early as 6 hours and peaks between 24-48 hours following UVB exposure. […]
# To summarize, confluent monolayers of the human epidermal cell line HaCaT were either irradiated with UVB (20 mJ/cm^2) or sham irradiated. […] The drug was readministered after UVB exposure. […]
# RBL-2H3 mast cells = assay: IgE receptor/FcεRI-mediated mast cell degranulation (β-hexosaminidase release); format: cell-based, rat
# Procedure: Monolayers of RBL-2H3 rat mast cells were sensitized with monoclonal anti-DNP IgE antibody (0.24 mg/ml) for 1 hour at 37° C. in a 48-well tissue culture plate. Unbound IgE was removed by washing the cells with phosphate buffered saline. After washing, PIPES-buffered saline containing 1 mM calcium chloride was added to the monolayers of the RBL-2H3 cells. The cells were challenged with 20 ng/ml DNP-BSA for 30 minutes at 37° C. The plate was centrifuged at 200 g for 10 minutes at 4° C. and supernatants were saved. […]
# To study the effects of compound D-58, RBL-2H3 cells were incubated with compound D-58 at the indicated concentrations or vehicle for 1 hour prior to antigen challenge. Mast cell degranulation (β-hexosaminidase release, % of total) was assessed by measuring the β-hexosaminidase levels in cell free supernatants and Triton X-100 solubilized pellets using the formula: β-hexosaminidase release, % of total=100×(β-hexosaminidase level in supernatant/β-hexosaminidase level in supernatant+solubilized pellet). […]
# In order to examine the effects of compound D-58 on IgE receptor/FcεRI-mediated mast cell activation and mediator release, RBL-2H3 mast cells were exposed to increasing concentrations of this ethanone or vehicle prior to challenge with antigen (DNP-BSA). […] Mast cell β-hexosaminidase release (FIG. 3A) and LTC4 release (FIG. 3B) were measured. […]
compound,measurement,setting,value
COc1ccc(CC(=O)c2c(O)cc(O)cc2O)cc1 [Compound D-58],"Evans blue dye extravasation in DNP-IgE injected ears, Absorbance at 570 nm",Balb/c mice,0.26±0.02
same,PGE2 release from UVB irradiated cells,HaCaT cells,inhibited the PGE2 release
same,IgE/antigen induced mast cell degranulation (β-hexosaminidase),"RBL-2H3 mast cells; 1 hour prior to DNP-BSA challenge, FIG. 3A",inhibited
same,mediator release induced by compound alone,RBL-2H3 mast cells; incubation without antigen challenge (data not shown),did not induce mediator release

# — patent US6391921B1 (priority 2000, dated 2002)
